Drawing on a melting point compilation (Tetko et al.; mined from patent text by program, amines drawn as free bases though some values may be those of a salt), this text covers melting point for 88 compounds.

The structures appear in SMILES notation.

As a reminder, the melting point is the temperature of the solid-liquid transition.

Compound `CCC/C=C\c1nc(Cl)c(CO)n1Cc1ccc(-c2ccccc2)c(C(=O)O)c1` showed a melting point of 148 to 150 °C. `Cc1ccc(C(=O)Nc2ccccc2O)cc1F` showed a melting point of 181 to 183 °C. Under `CN1c2ccccc2-c2nc3ccc(Cl)cc3c3cccc1c23` stands 226 to 228 °C.

The compound `O=C(Nc1ccc(Cl)cc1)N1CC(c2ccccc2)C(c2ccc(Cl)cc2)=N1` (stereo not drawn) showed a melting point of 173 to 175 °C.

With `CCOC(=O)C1CCCN(S(=O)(=O)c2ccc3[nH]c(=O)c4cccc5c4c3c2C5)C1` (stereo not drawn), the melting point is 215 to 218 °C. The same measure for `Oc1cc(Cl)c(OCc2ccccc2Cl)c(Cl)c1`: 108 °C; for `COc1cccc2c1cc(C(=O)OCc1ccccc1)n2CC(=O)OC(C)(C)C`: 96 to 98 °C; for `O=C(O)C(CCc1ccccc1)NS(=O)(=O)c1ccc2c(c1)S(=O)(=O)c1ccccc1O2` (stereo not drawn): 170 to 174 °C. The same measure for `O=S(=O)(c1nc2c3ccccc3c3ccccc3c2[nH]1)C(F)(F)C(F)F`: 254 to 256 °C; for `O=c1[nH]nc2c(Br)cccn12`: 297 to 299 °C; for `CCNC(=O)C1CN(C(c2ccccc2)c2ccccc2)C1`: 91 to 93 °C. Consider `CC(=O)Nc1c(I)c(C(N)=O)c(I)c(C(=O)NCC(=O)O)c1I`, for which the melting point was 271 to 272 °C.

`COc1ccc(Cc2nccc3cc(O)ccc23)cc1OC` returned a melting point of 190 to 192 °C. The same measure for `COc1ccc(CCN2C=CC=C3C2=Nc2cc(OC)ccc2S(=O)(=O)N3C)cc1`: 65 to 68 °C; for `CC(C)(C)NC(=O)N1CCn2c(Br)c(-c3cccc(F)c3)c(C(N)=O)c2C1`: 184 to 189 °C. Under `COC(=O)CC1(CN=C=O)CCCCCC1` stands 69 to 72 °C; under `CCCOC1(c2ccc(C)cc2C)N=C(c2ccc(C)cc2C)N=CN1` (stereo not drawn), 86 to 88 °C. In turn, `Cc1cc(N2CCN(c3c(C)c(C)c4c(c3C)CC(C)(C)O4)CC2)n2nccc2n1` registered a melting point of 180 to 182 °C. The same measure for `O=C(NO)c1ccc2c(c1)CCN(C(=O)NCc1ccccc1)C2`: 149 to 153 °C; for `O=C1c2c(Cl)cccc2-n2cnc(-c3nnco3)c2[C@@H]2CCCN12`: 229 to 230 °C. The same measure for `O=C1CC2(CC=CC2)CC(=O)N1`: 150 to 153 °C; for `O=S(=O)(O)c1ccc(OC2=C(Oc3ccc(S(=O)(=O)O)cc3)C(F)(F)C(F)(F)C2(F)F)cc1`: 251 to 255 °C. Under `CCN1C(=S)NNC1c1ccccc1NC(C)=O` (stereo not drawn) stands 193 to 194 °C; under `CCCn1nc(-c2sc(C(=O)NC(C)C)nc2-c2ccccc2)ccc1=O`, 146 to 148 °C.

Compound `COc1cc(Nc2nc3cccc(-c4ccc(S(=O)(=O)N5CCOCC5)cc4)c3o2)cc(OC)c1OC` returned a melting point of 201 to 203 °C. As to `CCCC(CO)N1CC(COc2cccc(Cl)c2)OC1=O` (stereo not drawn), the melting point is 79 to 81 °C. The same measure for `Fc1ccc(F)c(CC2CCN(C3CC=C(c4ccc5c(c4)OCO5)CC3)CC2)c1` (stereo not drawn): 87 to 88 °C. Under `O=C(O)c1ccc(N(CCn2ccnc2)c2ccc(F)cc2)cc1-c1ccc(F)cc1` stands 195 to 200 °C; under `COCCOc1ccccc1S(=O)(=O)NC(=O)Nc1nc(Cl)cc(OC)n1`, 166 to 168 °C; under `CCc1nc2c(C)cc(C)nc2n1Cc1cccc(C(=Cc2nnn[nH]2)c2ccccc2)c1`, 187 to 195 °C. The same measure for `CN1C(=O)C(c2cccc(-c3ccccc3)c2)(C2CCN(C(=O)c3cccs3)CC2)N=C1N` (stereo not drawn): 135 to 137 °C; for `COCCOc1ccc(Nc2nc(Nc3cc4c(cc3OC)CCN(CC(=O)N(C)C)CC4)ncc2Cl)c(S(=O)(=O)C(C)C)c1`: 65 to 75 °C; for `Brc1cc(-c2ccncc2)cnc1Br`: 150 to 155 °C. In the case of `CN(CCN[C@H]1CC[C@H](c2ccccc2)CC1)c1ccc2[nH]c(=O)oc2c1`, the melting point was in the range of 229 to 234 °C.

On to `NC(=O)c1cc2c(OCCCN3CCN(C(c4ccccc4)c4ccccc4)CC3)cccc2[nH]1`, for which the melting point was in the range of 222 to 223 °C. The same measure for `CCC(C(=O)O)N(C(=O)c1cn(-c2cc(C(F)(F)F)ccc2Cl)nc1C)c1ccc(OCC(C)(C)C)c(C#N)c1` (stereo not drawn): 134 to 135 °C; for `CSc1nc2ccccc2n1C1CCNCC1`: 114 to 115 °C; for `COc1ccc2c(c1OC)CCN(Cc1ccccc1)Cc1cc3c(cc1C=C2)OCO3`: 129 to 132 °C. The same measure for `CCC(CC)(CCc1ccc(Cl)cc1)NC(=O)n1nc(N(C)C)n(N=C(C)CC(C)C)c1=O`: 121 °C; for `CN(C)CCOc1ccc([C@H]2C[C@]3(C)C(=O)CC[C@H]3[C@@H]3CCc4c(ccc(O)c4Cl)[C@H]32)cc1`: 254 °C. Under `CC=CC=C1SC(=S)N(CC(=O)O)C1=O` stands 216 to 218 °C; under `COc1ccc2nc3c(cc2c1)c(C(N)=O)nn3C`, 268 to 270 °C; under `Nc1nc2c(s1)CCN(CC=Cc1ccc3[nH]ccc3c1)CC2`, 60 to 65 °C. Consider `COCOc1ccccc1COc1cc2c(cc1-c1cc(C=CC(=O)O)ccc1OC)C(C)(C)CCC2(C)C`, for which the melting point fell in the range of 159 to 161 °C. Under `Cc1ccc(C2c3c(C)c(N4CCN(c5ccc(C#N)cc5)CC4)c(C)c(C)c3OC2(C)C)cc1` (stereo not drawn) stands 216 to 217 °C; under `N=C(NC(=O)OCc1ccccc1)NC(=O)OCc1ccccc1`, 149 to 150 °C.

The compound `COc1ccc(-c2cc(C(=O)O)c(=O)n(CC3CC3)n2)cc1` had a melting point of 154 to 155 °C. Under `NNc1nnc(Cl)cc1N` stands 190 °C; under `COc1ccc(NC(=O)NC/C=C2\CCCc3ccc(OC)cc32)cc1`, 168 to 170 °C. The same measure for `CC1=CCCC2C1(C)CCC(C)C2(C)CC1=CC(=O)C=CC1=O` (stereo not drawn): 62 to 64 °C; for `CC(C)N(CCN1C(=O)/C(=N/NC(=O)NC2CCCCC2)c2cc(Br)ccc21)C(C)C`: 155 to 156 °C. The same measure for `CCN(CC)C(=O)c1ccc(S(=O)(=O)N(CC)CC)o1`: 56.4 °C. `CCNC(=O)c1cc(N)ccc1[Si](C)(C)C` registered a melting point of 143 to 145 °C. `Cc1nc(-n2cnn(CC3CC3)c2=O)sc1C(=O)NCc1cocn1` yielded a melting point of 157 to 158 °C. The same measure for `CCCCOc1ccc(S(=O)(=O)N2CCC(OS(C)(=O)=O)C2)cc1` (stereo not drawn): 80 to 81 °C; for `CC(=O)O[C@@H]1C=C2C=C3C(=C(C)C(=O)N3C)C[C@]2(C)[C@@H](C)[C@H]1O`: 50 to 55 °C. In turn, `CCN1CC2CCCC2C1CNC(=O)c1cc(Cl)c(NC(C)=O)cc1OC` (stereo not drawn) had a melting point of 156 to 157 °C.

`O=C(Nc1cccnc1)N1CCN(c2nccc(-c3ccc(F)cc3F)n2)CC1` came in with a melting point of 206 to 207 °C. The compound `CCCCCCCC(=O)SSC(=O)CCCCCCC` came in with a melting point of 36 to 38 °C. Under `CCOC(=O)C1(C(C)C)OC2(O)C3CCCN3C(=O)C(C(C)C)N2C1=O` (stereo not drawn) stands 103 to 104 °C; under `COc1cccc(Cc2oc3ccc(OC)cc3c2CC#N)c1`, 81 °C. The same measure for `COC(=O)c1ccc(OCC2CC(=O)N(c3ccc(N)cc3)C2)cc1` (stereo not drawn): 136 to 138 °C; for `CC(C)n1c(=O)nc(-c2ccc3c(c2)OCO3)c2cc3c(cc21)OCO3`: 125 to 127 °C; for `Sc1cc(Cl)nc2ncnn12`: more than 300 °C. The same measure for `COC(=O)c1cc(C)c(NC(=O)c2cc(C(F)(F)F)nn2-c2ncccc2Cl)c(C(=O)NC(C)C)c1`: 199 to 200 °C; for `CCCCCCCCOc1ccc(C#N)c(O)c1`: 69 to 71 °C. Regarding `CNc1nc(O)nc2c(Cl)cc(OC)c(OC)c12`, the melting point fell in the range of 219 to 221 °C.

As to `CCOC(=O)c1cn(CC)c2nc(N3CCNCC3)c(F)cc2c1=O`, the melting point was in the range of 150 to 151 °C.

On to `COC1=C(OC)C(=O)C(CCCCCCCCCCCCCCCCCCO)=C(C)C1=O`, for which the melting point amounted to 81 °C.

For the compound `CC1(C)NCC(=O)N1CC(N)=O`, the melting point is 144 to 146 °C. As for `CC(C)C(=O)N(C(=O)OC(C)(C)C)C(CC(N)C(=O)OCc1ccccc1)C(N)=O` (stereo not drawn), the melting point was 112 to 113 °C. Under `CCCCC(CC)COc1cc2c3c(c4cc(OCC(CC)CCCC)c(OCC(CC)CCCC)cc4c2cc1OCC(CC)CCCC)C(=O)C=CC3=O` (stereo not drawn) stands 105 to 107 °C; under `CCOC(=O)c1ncn(-c2nncs2)c1S(=O)(=O)NC(=O)Nc1nc(OC)cc(OC)n1`, 169 to 171 °C; under `Fc1ccc(-c2cc(Cl)c3cc(Cl)ccc3n2)cc1`, 150 to 156 °C. Under `C=CCOc1cc(COC2CCCCO2)ccc1OCCI` (stereo not drawn) stands 103 to 104 °C; under `Oc1nc2ccc3nsnc3c2nc1O`, more than 300 °C.

For the compound `O=[N+]([O-])c1sccc1Nc1ccccc1`, the melting point was 105 °C.

As to `COCn1ccc(C(=O)c2ccc(Cc3ccc(F)cc3)o2)c(O)c1=O`, the melting point lay within 128 to 130 °C.

The compound `C#CCN1CCC(OC)(c2cccc(OCc3ccc4ccccc4c3)c2)C1` (stereo not drawn) gave a melting point of 63 to 65 °C. The same measure for `COC1=C(OC)C(=O)C2=C(CCC(CCn3cnc4ccccc43)CC2)C1=O`: 159 to 163 °C; for `CC(C)(C)c1ccc(C(O)(c2ccc(Cl)cc2)c2ncc[nH]2)cc1` (stereo not drawn): 95 to 110 °C; for `CC(C)[C@H](NC(=O)OCc1ccccn1)C(=O)O`: 116 to 118 °C. The same measure for `CNC(=O)c1ccccc1-c1nc(-c2ccccc2)no1`: 145 to 146 °C; for `O=[N+]([O-])c1ccc2c(c1)N(C1CC1)CNS2(=O)=O`: 166 to 169 °C. The same measure for `CCCCNC(=O)c1ccc(Cl)c(-n2nc(CCCC)n(Cc3ccc(-c4ccccc4S(=O)(=O)NC(=O)c4ccccc4Cl)cc3F)c2=O)c1`: 218 to 220 °C; for `CCOc1ccc(C[N+](=O)[O-])c(C=CC[N+](=O)[O-])c1OCc1ccccc1`: 89 to 90 °C; for `CC(CNS(=O)(=O)c1ccccc1)c1ccc(OCC(=O)O)c(F)c1` (stereo not drawn): 49 to 51 °C.

Compound `Cn1ncc2c(C(F)(F)F)cc(Cl)nc21` yielded a melting point of 123 °C.
